Assays:
MMP-1 = MMP-1 activity of trypsin-treated cell suspension and cell sheet at different seeding densities (Example 1); type: cell-based; details: for MMP1 average: UE7T-13 cells
Description: (§1) In the present disclosure, the MMP activity can be determined by measuring the enzyme activity using a fluorescence resonance energy transfer (FRET) peptide that generates fluorescence upon cleavage by MMP.
(§2) After four days, the temperature-responsive culture dishes were moved into a 32° C., 5% CO2 incubator, and sheets were made. The cell sheets obtained were washed three times with PBS, then homogenized in the buffer of an MMP activity measurement kit (SensoLyte® 520 MMP-1 Assay Kit Fluorimetric, (ANASPEC Co.: Cat #: AS-71150) and SensoLyte® 520 MMP-14 Assay Kit Fluorimetric (ANASPEC Co.: Cat #AS72025)). The cells seeded in the ordinary cell culture dishes were dispersed in 0.025% trypsin/0.1 mM EDTA, recovered by centrifugation, then washed three times with PBS and homogenized in the buffer for the MMP activity measurement. The results in FIG. 1 show the results on MMP-1 (FIG. 1A) and MMP-14 (FIG. 1B) per cell. […] It was a surprising result that the MMP-1 activity per cell was increased by increasing the seeding density.

MMP-14 = MMP-14 activity of trypsin-treated cell suspension and cell sheet at different seeding densities (Example 1); type: cell-based; details: for MMP14 average: UE7T-13 cells
From the text: as §1
as §2, with “Bone marrow-derived mesenchymal stem cells (UE7T-13 cell line) were suspended in DMED/10% FBS and seeded to make respective seeded cell densities of 3.6×10^4 cells/cm^2, 5.4×10^4 cells/cm^2, and 7.2×10^4 cells/cm^2 in temperature-responsive culture dishes and ordinary cell culture dishes. After” for “After”

[1] = seeding density 1.8 × 10^4 cells/cm^2, per cell
[2] = seeding density 3.6 × 10^4 cells/cm^2, per cell
[3] = seeding density 5.4 × 10^4 cells/cm^2, per cell
[4] = seeding density 7.2 × 10^4 cells/cm^2, per cell

Trypsin
increase of MMP activity when the seeding density was increased four-fold (MMP-1; Example 1, MMP-1 and MMP-14 together): about four-fold | increase of MMP-1 activity when the seeding density was increased four-fold (MMP-1; FIG. 1A): about four-fold | MMP1 average (MMP-1; [1]): 103548.8 | MMP1 average (MMP-1; [2]): 242642.7 | MMP1 average (MMP-1; [3]): 326635.6 | MMP1 average (MMP-1; [4]): 462976 | increase of MMP-14 activity when the seeding density was increased four-fold (MMP-14; FIG. 1B): about four-fold | MMP14 average (MMP-14; [1]): 156184.1 | MMP14 average (MMP-14; [2]): 353634.5 | MMP14 average (MMP-14; [3]): 427591.6 | MMP14 average (MMP-14; [4]): 576164

From patent US20230117252A1, “CELL SHEET HAVING FIBROSIS INHIBITORY ACTION” (NATIONAL UNIVERSITY CORPORATION TOTTORI UNIVERSITY, priority 2017, published 2023)
